In ChEMBL document CHEMBL1137091, “Carbonic anhydrase inhibitors. Design of selective, membrane-impermeant inhibitors targeting the human tumor-associated isozyme IX” (J Med Chem, 2004):

Legend:
Homo sapiens [1] = organism: Homo sapiens; test: Percentage inhibition for the inhibition of Cl-/NO3- exchange measured for AE1 transfected cells (before and after treatment with CAI); assay type: functional
Homo sapiens [2] = organism: Homo sapiens; test: Relative transport activity for the inhibition of Cl-/NO3- exchange measured for AE1 transfected cells (before and after treatment with CAI); assay type: functional
Homo sapiens [3] = organism: Homo sapiens; test: Inhibitory concentration for the half maximal inhibition of Cl-/NO3- exchange measured for AE1 transfected cells (before and after treatment with CAI); assay type: functional
Carbonic anhydrase 4 = molecular target: T1, Carbonic anhydrase 4 (Bos taurus, UniProt Q95323)
T1 sequence (Q95323 whole entry): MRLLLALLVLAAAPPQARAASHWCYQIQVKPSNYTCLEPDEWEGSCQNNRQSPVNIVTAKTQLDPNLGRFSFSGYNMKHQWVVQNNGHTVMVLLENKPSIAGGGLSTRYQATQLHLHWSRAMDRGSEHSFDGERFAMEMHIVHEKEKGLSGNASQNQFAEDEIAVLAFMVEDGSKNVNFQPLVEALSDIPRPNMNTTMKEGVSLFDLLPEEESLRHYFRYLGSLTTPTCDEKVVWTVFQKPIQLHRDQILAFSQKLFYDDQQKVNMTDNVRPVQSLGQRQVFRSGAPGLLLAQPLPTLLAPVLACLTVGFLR
Description: Inhibition constant evaluated for the inhibition of bovine CA IV (Carbonic anhydrase IV)

Carbonic anhydrase 1 = Carbonic anhydrase 1 (Homo sapiens, UniProt P00915)
Sequence of Carbonic anhydrase 1 (P00915 whole entry): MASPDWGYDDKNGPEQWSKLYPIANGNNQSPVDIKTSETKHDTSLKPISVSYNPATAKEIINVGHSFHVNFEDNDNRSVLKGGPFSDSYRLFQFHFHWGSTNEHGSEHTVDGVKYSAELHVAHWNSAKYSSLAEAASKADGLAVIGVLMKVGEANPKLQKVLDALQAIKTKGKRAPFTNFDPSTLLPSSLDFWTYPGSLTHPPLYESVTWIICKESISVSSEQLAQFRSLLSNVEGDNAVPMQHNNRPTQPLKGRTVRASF
Description: Inhibition constant evaluated for the inhibition of human CA I (Carbonic anhydrase I)

Carbonic anhydrase 2 = Carbonic anhydrase 2 (Homo sapiens, UniProt P00918)
Description: Inhibition constant evaluated for the inhibition of human CA II (Carbonic anhydrase II)

Carbonic anhydrase 9 = Carbonic anhydrase 9 (Homo sapiens, UniProt Q16790)
Description: Inhibition constant evaluated for the inhibition of human CA IX (Carbonic anhydrase IX)

Row | SMILES | Inhibition (Homo sapiens [1]) [%] | Activity (Homo sapiens [2]) | IC50 (Homo sapiens [3]) [µM] | Ki (Carbonic anhydrase 4) [µM] | Ki (Carbonic anhydrase 1) [µM] | Ki (Carbonic anhydrase 2) [µM] | Ki (Carbonic anhydrase 9) [µM]
1 | CCCCc1cc(-c2ccccc2)cc(CCCC)[n+]1-c1ccc(S(=O)(=O)Nc2nnc(S(N)(=O)=O)s2)cc1.[O-][Cl+3]([O-])([O-])[O-] | 34 | 0.709 | 1510 | – | – | – | –
2 | Cc1c2cc(c(C)[n+]1-c1ccc(S(=O)(=O)Nc3nnc(S(N)(=O)=O)s3)cc1)CCCCCCCCC2.[O-][Cl+3]([O-])([O-])[O-] | – | 1 | – | 0.0046 | 0.003 | 0.00137 | 0.012
3 | CCCc1cc(-c2ccccc2)cc(CCC)[n+]1-c1ccc(S(=O)(=O)Nc2nnc(S(N)(=O)=O)s2)cc1.[O-][Cl+3]([O-])([O-])[O-] | 32 | 0.651 | 126 | – | – | – | –
